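96-well plates; 48 h exposure; 5 concentrations. Endpoints by linear interpolation between flanking doses. Not reached: highest tested concentration assigned. GI50 marks 50% less growth.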 Calls of active or inactive are those of the source. No stated cut-off is given here; in the data, active = GI50 up to about 1.1 µM and inactive = higher.
Key:
Experiment in all cases: NCI-60 cell line screen, 48 h
OVCAR-3 = tested on: OVCAR-3
HOP-92 = tested on: HOP-92
HOP-62 = tested on: HOP-62
SK-MEL-2 = tested on: SK-MEL-2
OVCAR-8 = tested on: OVCAR-8
SF-539 = tested on: SF-539
SK-OV-3 = tested on: SK-OV-3
SNB-75 = tested on: SNB-75
HCC 2998 = tested on: HCC 2998
HL-60 = tested on: HL-60
OVCAR-5 = tested on: OVCAR-5
786-0 = tested on: 786-0
UO-31 = tested on: UO-31
CAKI-1 = tested on: CAKI-1
M14 = tested on: M14
RXF 393 = tested on: RXF 393
NCI-H460 = tested on: NCI-H460
SK-MEL-28 = tested on: SK-MEL-28
MOLT-4 = tested on: MOLT-4

Row | SMILES | GI50 (OVCAR-3) | GI50 (HOP-92) | GI50 (HOP-62) | GI50 (SK-MEL-2) | GI50 (OVCAR-8) | GI50 (SF-539) | GI50 (SK-OV-3) | GI50 (SNB-75) | GI50 (HCC 2998) | GI50 (HL-60) | GI50 (OVCAR-5) | GI50 (786-0) | GI50 (UO-31) | GI50 (CAKI-1) | GI50 (M14) | GI50 (RXF 393) | GI50 (NCI-H460) | GI50 (SK-MEL-28) | GI50 (MOLT-4)
1 | CC1=C(C(=O)CC(=O)C(=O)Nc2ccccc2C(F)(F)F)Sc2ccccc2N1 | 25.4 µM (inactive) | 20.8 µM (inactive) | 33.9 µM (inactive) | > 100 µM (inactive) | 50 µM (inactive) | 31.2 µM (inactive) | > 100 µM (inactive) | 4.23 µM (inactive) | 41.1 µM (inactive) | 35.4 µM (inactive) | > 100 µM (inactive) | > 100 µM (inactive) | 25.4 µM (inactive) | 53.2 µM (inactive) | 52.4 µM (inactive) | 15.8 µM (inactive) | 57.1 µM (inactive) | – | –
2 | COc1ccc2oc(=O)c(-c3csc(C)n3)cc2c1 | – | 19.5 µM (inactive) | 31 µM (inactive) | 41.4 µM (inactive) | – | 22.2 µM (inactive) | 28.1 µM (inactive) | 30.5 µM (inactive) | > 100 µM (inactive) | > 100 µM (inactive) | > 100 µM (inactive) | 54.2 µM (inactive) | 69.2 µM (inactive) | > 100 µM (inactive) | 75.2 µM (inactive) | 30.5 µM (inactive) | > 100 µM (inactive) | > 100 µM (inactive) | > 100 µM (inactive)
3 | O=c1c2cc(Br)cc(Br)c2nc(CCCl)n1CCO | 52.2 µM (inactive) | 28.8 µM (inactive) | > 100 µM (inactive) | > 100 µM (inactive) | > 100 µM (inactive) | 81.3 µM (inactive) | 58.7 µM (inactive) | 22.6 µM (inactive) | > 100 µM (inactive) | 37.8 µM (inactive) | > 100 µM (inactive) | > 100 µM (inactive) | 34.7 µM (inactive) | 91 µM (inactive) | 97.7 µM (inactive) | 47.4 µM (inactive) | > 100 µM (inactive) | 52 µM (inactive) | 46.9 µM (inactive)
4 | CC(C)CC(C#CCCOC(=O)c1ccccc1)OC(=O)c1ccccc1 (stereo not given) | > 10 µM (inactive) | > 10 µM (inactive) | > 10 µM (inactive) | > 10 µM (inactive) | > 10 µM (inactive) | > 10 µM (inactive) | > 10 µM (inactive) | 0.445 µM (active) | > 10 µM (inactive) | > 10 µM (inactive) | > 10 µM (inactive) | > 10 µM (inactive) | > 10 µM (inactive) | – | > 10 µM (inactive) | > 10 µM (inactive) | > 10 µM (inactive) | > 10 µM (inactive) | > 10 µM (inactive)
5 | CCOC(OC(C)=O)[C@@H]1C=C[C@H](C)N(c2ccc([N+](=O)[O-])cc2)O1 (stereo not given in full) | 5.66 µM (inactive) | 6.25 µM (inactive) | 10.7 µM (inactive) | 4.26 µM (inactive) | 2.02 µM (inactive) | 2.54 µM (inactive) | 17.8 µM (inactive) | 4.79 µM (inactive) | 11.9 µM (inactive) | 1.82 µM (inactive) | 2.76 µM (inactive) | 2.67 µM (inactive) | 3.45 µM (inactive) | 7.8 µM (inactive) | 3.06 µM (inactive) | 0.759 µM (active) | 10.6 µM (inactive) | 3.01 µM (inactive) | 1.86 µM (inactive)
6 | Nc1ccccc1C(=O)/C=C/c1ccccc1O | 31.4 µM (inactive) | 20.6 µM (inactive) | > 100 µM (inactive) | 28.3 µM (inactive) | 50.8 µM (inactive) | 78.7 µM (inactive) | > 100 µM (inactive) | 17.5 µM (inactive) | 32.3 µM (inactive) | 22.8 µM (inactive) | > 100 µM (inactive) | 57 µM (inactive) | 58.5 µM (inactive) | 25.6 µM (inactive) | 32.3 µM (inactive) | 61.1 µM (inactive) | 67.1 µM (inactive) | > 100 µM (inactive) | 31.3 µM (inactive)
7 | CS(=O)(=O)c1nc(N)nc2nc[nH]c12 | > 100 µM (inactive) | > 100 µM (inactive) | > 100 µM (inactive) | > 100 µM (inactive) | > 100 µM (inactive) | > 100 µM (inactive) | > 100 µM (inactive) | – | > 100 µM (inactive) | > 100 µM (inactive) | > 100 µM (inactive) | > 100 µM (inactive) | > 100 µM (inactive) | > 100 µM (inactive) | > 100 µM (inactive) | > 100 µM (inactive) | > 100 µM (inactive) | > 100 µM (inactive) | > 100 µM (inactive)
8 | CC(=O)CC(=O)Nc1ccccc1[N+](=O)[O-] | > 100 µM (inactive) | > 100 µM (inactive) | > 100 µM (inactive) | > 100 µM (inactive) | > 100 µM (inactive) | > 100 µM (inactive) | > 100 µM (inactive) | > 100 µM (inactive) | > 100 µM (inactive) | > 100 µM (inactive) | > 100 µM (inactive) | > 100 µM (inactive) | > 100 µM (inactive) | > 100 µM (inactive) | > 100 µM (inactive) | > 100 µM (inactive) | > 100 µM (inactive) | > 100 µM (inactive) | > 100 µM (inactive)
9 | CO[C@]12CCC(=O)N1C=Cc1c2[nH]c2ccccc12 | > 100 µM (inactive) | > 100 µM (inactive) | > 100 µM (inactive) | – | > 100 µM (inactive) | > 100 µM (inactive) | – | > 100 µM (inactive) | > 100 µM (inactive) | > 100 µM (inactive) | > 100 µM (inactive) | > 100 µM (inactive) | > 100 µM (inactive) | > 100 µM (inactive) | > 100 µM (inactive) | > 100 µM (inactive) | > 100 µM (inactive) | > 100 µM (inactive) | > 100 µM (inactive)
10 | Cc1nc2c(o1)/C(=N\c1ccccc1)c1nc(C)oc1/C2=N/c1ccccc1 | 39.2 µM (inactive) | 24 µM (inactive) | 13.1 µM (inactive) | 26.8 µM (inactive) | 15.3 µM (inactive) | 14.1 µM (inactive) | 20.2 µM (inactive) | 11.7 µM (inactive) | 32.4 µM (inactive) | 49.9 µM (inactive) | 34 µM (inactive) | 17.7 µM (inactive) | 17.2 µM (inactive) | – | 36.4 µM (inactive) | 20.6 µM (inactive) | 29.3 µM (inactive) | 23.9 µM (inactive) | 27.5 µM (inactive)
11 | [N-]=[N+]=NC(CCl)c1cn([C@H]2C[C@H](O)[C@@H](CO)O2)c(=O)[nH]c1=O (stereo not given in full) | > 100 µM (inactive) | > 100 µM (inactive) | > 100 µM (inactive) | > 100 µM (inactive) | > 100 µM (inactive) | > 100 µM (inactive) | > 100 µM (inactive) | > 100 µM (inactive) | > 100 µM (inactive) | > 100 µM (inactive) | > 100 µM (inactive) | > 100 µM (inactive) | > 100 µM (inactive) | > 100 µM (inactive) | > 100 µM (inactive) | > 100 µM (inactive) | > 100 µM (inactive) | > 100 µM (inactive) | > 100 µM (inactive)

Reference: ChEMBL document CHEMBL1201862, “PubChem BioAssay data set” (2004)
